Results: article PMC10755736, “Modulating Liquid–Liquid Phase Separation of Nck Adaptor Protein against Enteropathogenic Escherichia coli Infection” (ACS Central Science, 2023)
Entries after “also recorded” stand apart in the source; their conditions may differ. Non-standard residues stand in square brackets, D forms with d. Residues, ends and D or L forms follow the SMILES beside them. *: point of attachment. Biotin = O=C1N[C@H]2[C@H](CS[C@H]2CCCCC(=O)*)N1; Benzoyl(4-SO2F) = O=C(c1ccc(S(=O)(=O)F)cc1)*; pY = N[C@@H](Cc1ccc(OP(=O)(O)O)cc1)C(=O)O; Dap = NC[C@H](N)C(=O)O

How the values were obtained:
Type in all cases: binding
Nck [1] = target: T1, Nck (Homo sapiens, UniProt P16333); experiment: Crosslinking of peptides with recombinant Nck in vitro (SDS-PAGE, Western blotting); settings: PBS, 1 h
T1 construct: GST (followed by PreScission/HRV 3C site) (N, cleaved yes); made in house; host or cells: E. coli BL21(DE3)
Excerpt: Although peptide Y474 can block Nck-mediated LLPS, the requirement of a high concentration of the blocker peptide is hard to achieve inside the cell. […] The side chains of the Nck lysine residues are pointing toward the residues at pY+1 and pY+2 positions with distances of only 4 to 6 Å. This unique feature gives us an opportunity to design covalent blockers for Nck-SH2 by installing electrophiles at the pY+1 or pY+2 positions to enable a proximal conjugation reaction with one of the lysine residues. Covalent blockage through the characteristic lysine residues will maximize the specificity of the inhibitor toward Nck-SH2. As sulfonyl fluoride has been reported to react with proteinaceous nucleophiles such as lysine, histidine, or cysteine,[34] we installed a sulfonyl fluoride group on the side chain of diaminopropionic acid, giving an unnatural amino acid X1 at different positions such as pY+1 (Asp6) and pY+3 (Val8) of peptide EEHIpYDEVAAD. Besides the amino acid X1, we also included α-chloroacetyl-carrying amino acids X2 and X3, which may also react with proteineous nucleophiles. Electrophile-containing reactive peptides p1 to p11 were synthesized with a biotin tag at the N-termini (Figure 4b). After the reactive peptides were incubated with recombinant Nck protein at a 5:1 ratio at 37 °C in PBS for 1 h, the formation of covalently linked Nck–peptide conjugates could be observed, shown as new protein bands with molecular weights higher than that of Nck based on denatured SDS-PAGE and Western blotting analysis against biotin (Figure 4c). […] At 37 °C in PBS buffer, the 1:1 reaction efficiency reached 50% in 2 min (Figure S4 in the Supporting Information).
Figure 4 Covalently reactive peptides designed based on a Tir peptide. (a) Crystal structure of Nck-SH2 in complex with a peptide EEHIpYDEVAAD from EPEC protein Tir (PDB: 2CI9). (b) List of synthetic reactive peptides. (c) Unnatural amino acids in the peptides. (d) SDS-PAGE (top) and Western blotting (bottom) analyses showing covalent conjugation of the peptides with Nck. […]

Nck [2] = target: T1, Nck; experiment: Reaction kinetics of p1 crosslinking with Nck (SDS-PAGE); settings: 1:1 reaction, p1 5 μM, Nck 5 μM, PBS, 37 °C
Procedure: (§1) ether and purified by reverse-phase HPLC on a C18 column using acetonitrile/H2O (with 0.1% TFA) gradient on a reversed-phase C18 column, confirmed by MALDI-TOF MS analysis (Bruker, USA).
(§2) Pure peptides were lyophilized.
Crosslinking of Peptides with Nck in vitro […]
After incubation, 5´ loading buffer was added into the solution and heated at 100 °C for 10 min. These samples were then separated by 12% SDS-PAGE gel, which contained 10% glycerol instead of DI water, followed by staining with Coomassie brilliant blue. Western blot was then performed using the primary antibody specific for Nck or biotin and the secondary antibody.
Mass Spectrometric Analysis
(§3) The reaction mixture of Nck and p1 were digested with trypsin. Digested peptides were analyzed with an in-line EASY-spray source and nano-LC UltiMate 3000 high-performance liquid chromatography system (Thermo Fisher, USA) interfaced with an Elite mass spectrometer (Thermo Fisher, USA). The eluted peptides were detected by the Elite mass spectrometer, which was operated in data-dependent mode with one full MS scan at R = 60,000 (m/z = 200) mass, followed by MS/MS scans. Mass spectrometry raw data was searched by Maxquant.
Protein–Peptide Conjugation Reactions and the Binding Assay
The reaction solutions were then thermally denatured in the presence of loading dye to stop the reactions. […]

Nck-SH2 [3] = experiment: Covalent reaction of p1 with wild-type Nck-SH2; settings: cell lysate in vitro and in the cytosol
Procedure: Figure 5 Peptide p1 reacts with Lys 331. (a) MS/MS analysis of the conjugated site between p1 peptide and Nck-SH2 at Lys331. The corresponding mass data are shown in Figure S6 in the Supporting Information. […] Purified recombinant proteins were incubated with peptides in PBS buffer at 37 °C for 1 min (left) or 10 min (right). Molecular weight markers are shown in the middle. Red arrows indicate the covalent peptide–protein complex. […]
as §1, §2
Crosslinking of Peptides with Nck in vitro
Purified peptides were incubated with the recombinantly expressed Nck protein (10 μM) in PBS buffer at 37 °C. After incubation, 5´ loading buffer was added into the solution and heated at 100 °C for 10 min. […]
as §3, with “Mass spectrometry raw data was searched by Maxquant.” left out

Nck-SH2 [4] = experiment: Competitive pull-down of Nck with biotinylated Y474; settings: with or without p1
Procedure: In addition, we performed the reaction between p1 and Nck in a cell lysate, representing a complex solution. We incubated peptide p1 with the lysate of Caco-2 cells overexpressing Nck, and the reaction mixture was resolved on SDS-PAGE and analyzed with Western blotting against an anti-Nck antibody. […] Next, we incubated biotinylated peptide Y474 and Nck solutions with or without p1 peptide, and pulled down proteins that bound with biotinylated Y474.

CC[C@H](C)[C@H](NC(=O)[C@H](Cc1c[nH]cn1)NC(=O)[C@H](CCC(=O)O)NC(=O)[C@H](CCC(=O)O)NC(=O)CCCC[C@@H]1SC[C@@H]2NC(=O)N[C@@H]21)C(=O)N[C@@H](Cc1ccc(OP(=O)(O)O)cc1)C(=O)N[C@@H](CNC(=O)c1ccc(S(=O)(=O)F)cc1)C(=O)N[C@@H](CCC(=O)O)C(=O)N[C@H](C(=O)N[C@@H](C)C(=O)N[C@@H](C)C(=O)N[C@@H](CC(=O)O)C(N)=O)C(C)C [p1] (Biotin-EEHI[pY][Dap](Benzoyl(4-SO2F))EVAAD-NH2; N-terminus and C-terminus assumed)
number of Nck–peptide conjugate bands (Nck [1]; p1:Nck 5:1, 37 °C, SDS-PAGE): only one Nck–peptide conjugate band | reactivity with Nck (Nck [1]; peptide:Nck 5:1, 37 °C, SDS-PAGE and anti-biotin Western blotting): highest cross-linking efficiency with Nck; also recorded: noticeable reactivity | time to reach 50% reaction efficiency (Nck [2]): 2 min | reactivity with Nck-SH2 (Nck-SH2 [3]): high reactivity with Nck-SH2 | binding of Nck to biotinylated Y474 in pull-down (Nck-SH2 [4]): the Nck protein did not bind with Y474
